Consider 89 sequences from PMC314469, “Protein Interaction Networks by Proteome Peptide Scanning” (PLoS Biology, 2004).

In the first assay the test system is Myo5 SH3 domain. The assay can be described thus: SPOT analysis of cellulose-bound peptides (WISE), Myo5 SH3 domain (Dataset S4). Type of assay: binding, Saccharomyces cerevisiae. As to conditions: SPOT analysis of cellulose-bound 14-mer yeast proteome peptides, Myo5 SH3 domain; normalized value; mean where the peptide was synthesized more than once.
As to DEFTLDLPRIPSLE, the “The normalized value in BLU units” value turned out to be 180.8 BLU.
Regarding DFIKLMNPTLPSLK, the “The normalized value in BLU units” value amounted to 151.5 BLU.
The same measure, in the same setting: in the case of DFNKFERPNIPVEE it was 212.3 BLU; in that of DFVTLHVPATPETE, 190.5 BLU; in that of DGKLKHIPRRPYEI, 306.6 BLU.
The same measure, in the same setting: in the case of DLDWRKIPFLPKEI it was 250.1 BLU; in that of DLIHLDCPQQPNGY, 219.5 BLU.
DLSVHTSPHGPIGS: the “The normalized value in BLU units” value is 186.1 BLU.
Take DPNQLSTPPTPKSA: the “The normalized value in BLU units” value is recorded as 166.4 BLU.
The same measure, in the same setting: in the case of DTYARNNPDFPPQN it was 138.5 BLU; in that of EADGLVQPVVPDKV, 75.1 BLU; in that of EAFKLPKPWSPNSH, 141.0 BLU.
Regarding EAYRLNYPELPRLT, the “The normalized value in BLU units” value was 125.1 BLU.
With EEQVKEKPNEPEGK, the “The normalized value in BLU units” value is on record as 134.2 BLU.
As for EFDEKLPPKKPAGP, the “The normalized value in BLU units” value is reported as 87.3 BLU.
Regarding EFDMLLLPFIPSID, the “The normalized value in BLU units” value was determined as 249.2 BLU.
As for EFSPHSTPVTPRRL, the “The normalized value in BLU units” value turned out to be 114.0 BLU.
On to EGTTKVDPIIPVPE, for which the “The normalized value in BLU units” value is recorded as 180.1 BLU.
Take ELAEFTDPSCPVSE: the “The normalized value in BLU units” value is listed as 188.9 BLU.
As for ELEDFAFPDTPTIV, the “The normalized value in BLU units” value is reported as 254.9 BLU.
On the same count and under the same terms, then ELFTFDMPTDPSSF, with 44.9 BLU.

Still in this assay, the particulars now being: SPOT analysis of cellulose-bound peptides probed with Myo5 SH3 domain; normalized value.
DELLLMSPELPADL: the “The normalized value in BLU units (SPOT analysis, Myo5 SH3)” value was 16.0 BLU.
As for DFPLYKSPAFPSSC, the “The normalized value in BLU units (SPOT analysis, Myo5 SH3)” value was determined as 172.8 BLU.
DFRLHYYPKDPSNV: the “The normalized value in BLU units (SPOT analysis, Myo5 SH3)” value came to 77.7 BLU.
The same measure, in the same setting: in the case of DFSSYGPPGTPGYD it was 108.5 BLU; in that of DLKEFNGPEPPIKR, 125.6 BLU.
For the sequence DLLGLSTPQSPTNS, the “The normalized value in BLU units (SPOT analysis, Myo5 SH3)” value amounted to 91.9 BLU.
With DLMALKYPYFPTKM, the “The normalized value in BLU units (SPOT analysis, Myo5 SH3)” value came out at 139.1 BLU.
As for DLSYYLRPIKPFNT, the “The normalized value in BLU units (SPOT analysis, Myo5 SH3)” value was 160.7 BLU.
As to DPNAYMQPQVPVQM, the “The normalized value in BLU units (SPOT analysis, Myo5 SH3)” value is recorded as 160.5 BLU.
Same read-out and setting: in the case of DPSLYQIPEPPRGG it was 98.8 BLU.
On to EAGDFEQPKGPAGA, for which the “The normalized value in BLU units (SPOT analysis, Myo5 SH3)” value stood at 49.8 BLU.
Turning to EAHQHHQPPEPQPY, the “The normalized value in BLU units (SPOT analysis, Myo5 SH3)” value came to 0.0 BLU.
For EAIKLGVPKGPLFA, the “The normalized value in BLU units (SPOT analysis, Myo5 SH3)” value came to 130.4 BLU.
As to EARPYSEPSEPEDS, the “The normalized value in BLU units (SPOT analysis, Myo5 SH3)” value is on record as 208.3 BLU.
Consider EEMGMEEPQAPEAF, for which the “The normalized value in BLU units (SPOT analysis, Myo5 SH3)” value amounted to 127.9 BLU.
With EETEMLAPKLPEEN, the “The normalized value in BLU units (SPOT analysis, Myo5 SH3)” value is recorded as 81.6 BLU.
For ELLCFLSPGKPSKG, the “The normalized value in BLU units (SPOT analysis, Myo5 SH3)” value is given as 57.4 BLU.

Staying with this assay, now noted: SPOT analysis of membrane-bound peptides, Myo5 SH3 domain; normalized value (see methods).
Turning to DETRKLTPCSPGDD, the “The normalized value in BLU units” value was 230.8 BLU.
As for DFIGRKSPDLPEYL, the “The normalized value in BLU units” value came to 138.7 BLU.
Regarding DIKTRSVPKIPSIE, the “The normalized value in BLU units” value was 102.3 BLU.
Take DIPLKQVPENPMPT: the “The normalized value in BLU units” value stood at 62.9 BLU.
In the case of DIPRRYIPITPADL, the “The normalized value in BLU units” value was found to be 33.0 BLU.
With DKFIKLIPMRPVLI, the “The normalized value in BLU units” value was 252.9 BLU.
Consider DKKKKKYPRKPKKN, for which the “The normalized value in BLU units” value is listed as 532.3 BLU.
DLKKKYAPDPPITH: the “The normalized value in BLU units” value is reported as 185.5 BLU.
As to DLQKKYEPSPPATH, the “The normalized value in BLU units” value worked out at 224.6 BLU.
DLSLRYAPNLPRVI: the “The normalized value in BLU units” value is on record as 249.6 BLU.
As for DPSDKSLPQQPFHK, the “The normalized value in BLU units” value is listed as 191.9 BLU.
As to DSVLRQKPDKPRPI, the “The normalized value in BLU units” value turned out to be 134.9 BLU.
Consider DSYSRSRPTRPLGY, for which the “The normalized value in BLU units” value was 261.3 BLU.
For the sequence EDLVKKPPFIPSPT, the “The normalized value in BLU units” value was found to be 755.9 BLU.
Regarding EEQVKCNPNRPIYW, the “The normalized value in BLU units” value was 110.0 BLU.
EFLIKEDPDLPPQG: the “The normalized value in BLU units” value was 175.4 BLU.
In the case of EFTTREGPHQPIGN, the “The normalized value in BLU units” value was found to be 79.8 BLU.
As for EGRCRLFPHCPLGR, the “The normalized value in BLU units” value turned out to be 141.3 BLU.
With EHLQKERPKPPNKG, the “The normalized value in BLU units” value was 363.6 BLU.
With EIAKRLQPGSPVLG, the “The normalized value in BLU units” value is recorded as 172.5 BLU.
As for EIPSKDHPYDPEKD, the “The normalized value in BLU units” value is 51.8 BLU.
As to EKEAKSEPQQPEDN, the “The normalized value in BLU units” value is given as 139.0 BLU.
On the same count and under the same terms, in the case of EKELKEGPSSPASI it was 208.1 BLU; in that of EKESRHYPIKPPSP, 179.9 BLU.
On the same count and under the same terms, then EKNARGIPQAPFIE, with 135.6 BLU.
Still for that read-out and setting: then EKVFRGDPEHPAIS, with 90.0 BLU.
In the case of EKYGKDQPESPVPE, the “The normalized value in BLU units” value was 143.3 BLU.
Consider ELDTKTIPELPFCM, for which the “The normalized value in BLU units” value was 53.2 BLU.

The same assay, now with this note: SPOT analysis of membrane-synthesized peptides probed with Myo5 SH3 domain; normalized value.
As to DENSKWQPSDPFTM, the “The normalized value in BLU units (SPOT analysis, Myo5 SH3)” value is reported as 285.2 BLU.
With DEPIRYAPGDPIEK, the “The normalized value in BLU units (SPOT analysis, Myo5 SH3)” value worked out at 106.5 BLU.
As for DFRGRAYPLSPHFN, the “The normalized value in BLU units (SPOT analysis, Myo5 SH3)” value turned out to be 785.0 BLU.
On the same count and under the same terms, then DIGSKKLPTGPSKK, with 219.8 BLU; and DILKKESPDVPLFD, with 146.1 BLU; and DKIFKTDPNEPAND, with 99.1 BLU.
Consider DNELKDEPEPPNLI, for which the “The normalized value in BLU units (SPOT analysis, Myo5 SH3)” value was found to be 179.2 BLU.
Consider DQLNRLLPNLPEEE, for which the “The normalized value in BLU units (SPOT analysis, Myo5 SH3)” value is recorded as 47.5 BLU.
As to DRKNRAPPQRPRFN, the “The normalized value in BLU units (SPOT analysis, Myo5 SH3)” value is 2434.1 BLU.
DRLSKIKPFLPQSI: the “The normalized value in BLU units (SPOT analysis, Myo5 SH3)” value is reported as 225.5 BLU.
Same read-out and setting: then DVNHRYPPMAPTTV, with 175.5 BLU; and DYRPKCIPCPPNGI, with 154.3 BLU.
Still for that read-out and setting: in the case of EEEAKSVPPIPADQ it was 29.4 BLU.
In the case of EEKVKRTPPLPPVP, the “The normalized value in BLU units (SPOT analysis, Myo5 SH3)” value was 586.7 BLU.
Consider EELARVTPLTPKEY, for which the “The normalized value in BLU units (SPOT analysis, Myo5 SH3)” value is 181.5 BLU.
Consider EFDLKNIPMMPAGE, for which the “The normalized value in BLU units (SPOT analysis, Myo5 SH3)” value is on record as 106.1 BLU.
In the case of EFIVKTIPVPPRDF, the “The normalized value in BLU units (SPOT analysis, Myo5 SH3)” value was 115.3 BLU.
The same measure, in the same setting: in the case of EFLRKHSPKAPATG it was 412.8 BLU; in that of EFPGKKCPRLPHRN, 367.5 BLU; in that of EFQSKSSPVPPASE, 78.8 BLU.
Same read-out and setting: in the case of EIKDRDQPAVPPSP it was 108.1 BLU; in that of EKLIKITPDTPFGF, 205.9 BLU; in that of ELDIKQGPVRPFIV, 161.2 BLU.
